pIC50: −log10 of the molar value.
How the values were obtained:
dopamine D2 receptors = dopamine D2 receptors (Homo sapiens, UniProt P14416); assay type: binding; conditions: read-out: IC50, inhibition of the FRET signal by increasing concentrations of NAPS; Cos7 cells transfected with D2 receptors; NAPS(Lumi4-Tb) (8) 1 nM and NAPS(d1) (9) 5 nM
oxytocin receptor [1] = target: T1, oxytocin receptor (Homo sapiens, UniProt P30559); assay: Binding affinity of ligands for the oxytocin receptor
T1 sequence (P30559 1-389): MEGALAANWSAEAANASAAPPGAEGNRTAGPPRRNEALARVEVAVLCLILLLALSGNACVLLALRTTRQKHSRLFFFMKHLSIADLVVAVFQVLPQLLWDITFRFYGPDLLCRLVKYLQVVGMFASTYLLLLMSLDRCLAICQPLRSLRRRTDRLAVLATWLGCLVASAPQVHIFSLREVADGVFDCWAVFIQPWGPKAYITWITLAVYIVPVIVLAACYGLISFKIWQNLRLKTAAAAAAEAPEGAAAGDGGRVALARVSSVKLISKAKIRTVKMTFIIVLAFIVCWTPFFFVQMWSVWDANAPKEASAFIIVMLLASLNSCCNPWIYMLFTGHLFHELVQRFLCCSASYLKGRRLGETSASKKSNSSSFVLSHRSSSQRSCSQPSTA

oxytocin receptor [2] = target: T2, oxytocin receptor (Rattus norvegicus, UniProt P70536); assay type: binding; conditions: mammary gland patches; excess of oxytocin 1 μM
T2 sequence (P70536 1-388): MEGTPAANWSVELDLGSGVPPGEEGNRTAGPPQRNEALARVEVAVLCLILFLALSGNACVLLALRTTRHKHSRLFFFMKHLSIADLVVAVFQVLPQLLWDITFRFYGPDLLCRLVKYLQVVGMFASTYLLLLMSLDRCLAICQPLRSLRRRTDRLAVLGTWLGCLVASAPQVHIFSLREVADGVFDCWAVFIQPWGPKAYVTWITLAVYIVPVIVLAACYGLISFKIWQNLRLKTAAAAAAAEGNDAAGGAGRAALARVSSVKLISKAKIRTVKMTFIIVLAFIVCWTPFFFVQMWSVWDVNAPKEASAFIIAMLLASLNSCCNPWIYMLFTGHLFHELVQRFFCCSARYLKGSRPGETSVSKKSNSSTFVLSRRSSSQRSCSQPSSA

dopamine D2 receptors, sequence (P14416 whole entry): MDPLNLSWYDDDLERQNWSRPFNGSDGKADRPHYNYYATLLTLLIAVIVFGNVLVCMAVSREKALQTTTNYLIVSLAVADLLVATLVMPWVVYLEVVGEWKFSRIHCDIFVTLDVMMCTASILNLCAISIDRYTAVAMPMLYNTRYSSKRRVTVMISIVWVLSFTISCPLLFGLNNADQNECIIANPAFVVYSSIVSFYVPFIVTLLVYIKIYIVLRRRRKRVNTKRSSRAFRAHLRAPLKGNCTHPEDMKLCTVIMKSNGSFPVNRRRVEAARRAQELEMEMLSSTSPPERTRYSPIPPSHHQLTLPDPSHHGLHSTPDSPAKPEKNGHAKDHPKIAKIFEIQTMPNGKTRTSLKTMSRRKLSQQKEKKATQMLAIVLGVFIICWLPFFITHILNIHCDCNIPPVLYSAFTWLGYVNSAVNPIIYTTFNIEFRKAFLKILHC

Compound	pIC50 (dopamine D2 receptors)	Affinity for the oxytocin receptor (in words) (oxytocin receptor [1])	Effect on the FRET signal between donor and acceptor antagonists (oxytocin receptor [2])
Nc1ccc(CCN2CN(c3ccccc3)C3(CCN(CCCC(=O)c4ccc(F)cc4)CC3)C2=O)cc1 [NAPS, N-(p-aminophenethyl)spiperone]	8.72	–	–
HO-[Thr[4],Orn[8](Alexa-647)]VT [compound 6]	–	high affinities	–
HO-[Thr[4],Orn[8](Eu-PBBP)]VT [compound 5]	–	high affinities	–
d(CH2)5[DTyr(Et)2,Ile4,Eda(Alexa-647)9]VP [compound 14]	–	poor affinity	–
glucagon-like peptide 1 [GLP1]	–	no affinity	not affected

Reference: publication PMC3506176 (Nature chemical biology, 2010)
